Measured values taken from patent US20240158392A1 (Janssen Biotech, Inc., priority 2021, published 2024).

How the values were obtained:
SIK2 [1] = biological target: T1, SIK2 (Homo sapiens, UniProt Q9H0K1); assay: SIK2 Enzymatic Assay High Version 2 (High ATP); type: biochemical
Summary of the method: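 At room temperature, enzyme (6 nM, 2× final) was preincubated with compound for 30 min, then 6 mM ATP and 400 μM HDAC5tide (both 2× final) were added for 2 h. ADP formed was measured by ADP-Glo Max (2 h reagent, 1 h detection) using luminescence.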

SIK2 [2] = biological target: T1, SIK2; assay: SIK2 Enzymatic Assay Version 1 (ADP Glo); type: biochemical; conditions: enzyme 0.6 nM, 160 μM ATP and 140 μM HDAC5tide (each 2× final concentration); 30 minutes pre-incubation, 4 hours; ADPGlo luminescence; read-out: SIK2 ADP Glo IC50 (μM) (Test Example 1)
Summary of the method: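 Kinase activity read as ADP production by ADP-Glo luminescence, all steps at room temperature. Compound and SIK2 (0.6 nM, a 2× concentration) were preincubated 30 min; ATP-only wells lacking peptide were the negative control; depletion 40 min, detection ≥30 min.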

T1 sequence (Q9H0K1 whole entry, species assumed): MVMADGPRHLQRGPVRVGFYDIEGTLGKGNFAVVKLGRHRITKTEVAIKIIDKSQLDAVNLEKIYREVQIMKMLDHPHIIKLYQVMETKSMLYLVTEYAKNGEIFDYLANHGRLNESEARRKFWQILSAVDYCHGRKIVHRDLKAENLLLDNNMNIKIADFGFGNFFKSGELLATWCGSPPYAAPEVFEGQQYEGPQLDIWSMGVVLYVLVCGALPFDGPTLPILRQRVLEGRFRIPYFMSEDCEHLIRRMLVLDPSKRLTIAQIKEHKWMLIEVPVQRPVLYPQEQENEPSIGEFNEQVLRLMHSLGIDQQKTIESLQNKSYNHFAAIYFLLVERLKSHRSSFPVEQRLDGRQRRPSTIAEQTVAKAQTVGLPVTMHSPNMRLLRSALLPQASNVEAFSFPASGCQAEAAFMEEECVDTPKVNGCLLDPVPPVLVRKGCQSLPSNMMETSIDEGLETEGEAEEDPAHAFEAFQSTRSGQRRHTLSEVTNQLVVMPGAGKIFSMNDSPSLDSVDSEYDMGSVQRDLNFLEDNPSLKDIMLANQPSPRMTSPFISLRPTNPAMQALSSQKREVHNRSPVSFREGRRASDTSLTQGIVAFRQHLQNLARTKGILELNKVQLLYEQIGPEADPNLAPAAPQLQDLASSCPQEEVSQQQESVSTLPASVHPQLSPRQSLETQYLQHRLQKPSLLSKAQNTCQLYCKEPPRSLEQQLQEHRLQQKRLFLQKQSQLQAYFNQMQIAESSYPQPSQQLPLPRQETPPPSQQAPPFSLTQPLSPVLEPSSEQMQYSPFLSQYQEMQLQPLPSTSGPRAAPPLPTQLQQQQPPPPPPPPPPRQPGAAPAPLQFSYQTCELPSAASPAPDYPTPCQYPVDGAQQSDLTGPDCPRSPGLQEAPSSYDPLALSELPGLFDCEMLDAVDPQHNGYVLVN

Row | Structure (SMILES) | IC50 (SIK2 [1]) [nM] | IC50 (SIK2 [2]) [µM]
1 | CN1[C@@H]2CC[C@H]1C[C@@H](Oc1cnc(C#N)cc1-c1ccn3nc(NC(=O)C4CC4)cc3c1)C2 [Example 66, N-[5-[2-cyano-5-[[(1S,5R)-8-methyl-8-azabicyclo[3.2.1]octan-3-yl]oxy]-4-pyridyl]pyrazolo[1,5-a]pyridin-2-yl]cyclopropanecarboxamide] | 8.5 | 0.000561
2 | N#Cc1cc(-c2ccn3nc(NC(=O)C4CC4)cc3c2)c(OCC2CC2)cn1 [Example 584, N-[5-[2-cyano-5-(cyclopropylmethoxy)-4-pyridyl]pyrazolo[1,5-a]pyridin-2-yl]cyclopropanecarboxamide] | 35.3 | 0.00253
3 | N#Cc1cc(-c2ccn3nc(NC(=O)C4CC4)cc3c2)c(OC2CC2)cn1 [Example 46, N-[5-[2-Cyano-5-(cyclopropoxy)-4-pyridyl]pyrazolo[1,5-a]pyridin-2-yl]cyclopropanecarboxamide] | 185 | 0.0141
4 | N#Cc1cc(-c2ccn3nc(NC(=O)C4CC4)cc3c2)c(O[C@@H]2CCN(CC(F)(F)F)C2)cn1 [Example 110, (R)—N-[5-[2-cyano-5-[(3R)-1-(2,2,2-trifluoroethyl)pyrrolidin-3-yl]oxy-4-pyridyl]pyrazolo[1,5-a]pyridin-2-yl]cyclopropanecarboxamide] | 2.85 | 0.00055
5 | COCCN1CC[C@@H](Oc2cnc(C#N)cc2-c2ccn3nc(NC(=O)C4CC4)cc3c2)C1 [Example 111, (R)—N-[5-[2-cyano-5-[(3R)-1-(2-methoxyethyl)pyrrolidin-3-yl]oxy-4-pyridyl]pyrazolo[1,5-a]pyridin-2-yl]cyclopropanecarboxamide] | 47.9 | 0.00261
6 | N#Cc1cc(-c2ccn3nc(NC(=O)C4CC4)cc3c2)c(OCC2(O)CCC2)cn1 [Example 41, N-[5-[2-cyano-5-[(1-hydroxycyclobutyl)methoxy]-4-pyridyl]pyrazolo[1,5-a]pyridin-2-yl]cyclopropanecarboxamide] | 58.5 | 0.00243
7 | Cc1cc(-c2ccn3nc(Nc4cc(C)nc(C)n4)cc3c2)c(OCC(C)(C)O)nn1 [Example 600, 1-[4-[2-[(2,6-dimethylpyrimidin-4-yl)amino]pyrazolo[1,5-a]pyridin-5-yl]-6-methyl-pyridazin-3-yl]oxy-2-methyl-propan-2-ol] | 207 | 0.0142
8 | N#CCN1CC[C@@H](Oc2cnc(C#N)cc2-c2ccn3nc(NC(=O)C4CC4)cc3c2)C1 [Example 113, (R)—N-[5-[2-cyano-5-[(3R)-1-(cyanomethyl)pyrrolidin-3-yl]oxy-4-pyridyl]pyrazolo[1,5-a]pyridin-2-yl]cyclopropanecarboxamide] | 2.27 | 0.000393
9 | Cc1cc(-c2ccn3nc(NC(=O)C4CC4)cc3c2)c(O[C@@H]2CC[C@H](N)C2)cn1 [Example 152, N-[5-[5-[(1R,3S)-3-aminocyclopentoxy]-2-methyl-4-pyridyl]pyrazolo[1,5-a]pyridin-2-yl]cyclopropanecarboxamide] | 70.1 | 0.00378
10 | Cc1cc(-c2ccn3nc(NC(=O)C4CC4)cc3c2)c(OC[C@H]2C[C@@H](N)C2)cn1 [Example 171, cis-N-[5-[5-[(3-aminocyclobutyl)methoxy]-2-methyl-4-pyridyl]pyrazolo[1,5-a]pyridin-2-yl]cyclopropanecarboxamide] | 12.3 | 0.000617
11 | CN1[C@@H]2CC[C@H]1C[C@H](COc1cnc(C#N)cc1-c1ccn3nc(NC(=O)C4CC4)cc3c1)C2 [Example 27, N-[5-[2-cyano-5-[[(1S,5R)-8-methyl-8-azabicyclo[3.2.1]octan-3-yl]methoxy]-4-pyridyl]pyrazolo[1,5-a]pyridin-2-yl]cyclopropanecarboxamide] | 98.7 | 0.00474
12 | CN1CCC[C@@H](Oc2cnc(C#N)cc2-c2ccn3nc(NC(=O)C4CC4)cc3c2)C1 [Example 88, (R)—N-(5-(2-cyano-5-((1-methylpiperidin-3-yl)oxy)pyridin-4-yl)pyrazolo[1,5-a]pyridin-2-yl)cyclopropanecarboxamide] | 51.1 | 0.00298
